The target of test [1] is T1, gastric inhibitory peptide receptor (GIPR) (Homo sapiens, UniProt P48546).
T1 sequence (P48546 22-466): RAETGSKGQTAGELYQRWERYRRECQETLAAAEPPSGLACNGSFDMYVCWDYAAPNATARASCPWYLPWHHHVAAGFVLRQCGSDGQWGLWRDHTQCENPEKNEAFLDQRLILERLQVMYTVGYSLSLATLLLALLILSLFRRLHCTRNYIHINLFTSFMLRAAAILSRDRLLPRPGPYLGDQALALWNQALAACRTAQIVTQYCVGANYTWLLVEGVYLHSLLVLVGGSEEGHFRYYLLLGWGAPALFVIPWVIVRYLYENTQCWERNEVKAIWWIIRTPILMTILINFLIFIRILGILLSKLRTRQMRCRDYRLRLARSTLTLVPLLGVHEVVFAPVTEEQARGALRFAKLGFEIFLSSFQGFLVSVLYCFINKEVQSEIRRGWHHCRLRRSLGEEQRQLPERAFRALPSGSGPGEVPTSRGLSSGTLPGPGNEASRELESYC
Briefly: cAMP pharmacological functional assay in presence of casein, hGIPR. It is filed as cell-based. The note with it: HEK293 cells expressing hGIPR, 0.1% Casein, geometric mean; read-out: hGIPR cAMP Rel EC50 nM (SEM, n).

Test [2] addresses T2, human GLP-1R (Homo sapiens, UniProt P43220). The test can be described thus: [125I]-GLP-1 binding (SPA), human GLP-1 receptor. Set-up: expressed in transfected cells; crude membranes. The note with it: read-out: hGLP1R Ki, (nM) (SEM, n). The gist of the method:
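Ki values are geometric means with SEM over independent replicates on different days, derived from IC50s fitted by four-parameter nonlinear regression. The assay used crude cell membranes in HEPES buffer, pH 7.4, containing CaCl2, MgCl2, bacitracin and TWEEN-20.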

The target of test [3] is T2, human GLP-1R. The test can be described thus: GLP-1R HEK293 cell membrane [35S]GTPγS binding assay. It is filed as biochemical. Set-up: expressed in transfected cells; host or cells: HEK293 cells expressing human GLP-1R; membranes. The note with it: HEK293 cell membranes expressing human GLP-1R, [35S]GTPγS binding; read-out: hGLP1R GTPgS Rel EC50 nM (SEM, n). A digest of the protocol: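 Agonist-driven Gαs activation read as [35S]GTPγS ([…]) binding to receptor-expressing HEK293 membranes, 30 min at room temperature, pH 7.4. Detection by anti-Gαs immunocapture on scintillation beads; EC50 derived from four-parameter logistic concentration-response fit.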
Background: GTPγS is a poorly hydrolysed GTP analogue; its binding reports G protein activation.

Test [4] concerns the target T2, human GLP-1R. Briefly: GLP-1R CHO cell β-arrestin recruitment assay. It is filed as cell-based. Details: host or cells: CHO-K1 PathHunter cells, assay-ready frozen. The note with it: for EC50: CHO-K1 cells, PathHunter β-arrestin-2 recruitment, 0.1% casein, read-out: hGLP1R B-Arrestin2 Rel EC50 uM (SEM, n); for hGLP1R B-Arrestin2 % Top: normalized to GLP-1 maximum control. The gist of the method:
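Peptide-induced β-arrestin-2 recruitment measured by enzyme-fragment complementation luminescence after 90 min at 37 °C plus 60 min detection at RT.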

In test [5] the target is T3, human GIP receptor (Homo sapiens, UniProt P48546).
T3 construct: expressed in transfected cells; crude membranes
T3 sequence (P48546 22-466): T1 sequence (P48546 22-466)
The test can be described thus: [125I]-GIP binding (SPA), human GIP receptor. The note with it: read-out: hGIPR Ki, nM (SEM, n).

Test [6] concerns the target human GLP-1 receptor (GLP-1R) (Homo sapiens, UniProt P43220). Briefly: cAMP pharmacological functional assay in presence of casein, hGLP-1R. The test is classed as cell-based. Particulars: HEK293 cells expressing hGLP-1R, 0.1% Casein, geometric mean; read-out: hGLP1R cAMP Rel EC50 nM (SEM, n).
Test [7] has as its target T4, human Gcg receptor (Homo sapiens, UniProt P47871).
T4 construct: expressed in transfected cells; crude membranes
The test can be described thus: [125I]-Glucagon binding (SPA), human Gcg receptor. Particulars: read-out: hGLcgR Ki, nM (SEM, n). The gist of the method: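 Scintillation counts are taken after membranes and WGA beads incubate and settle for 12 hours at room temperature. Buffer is 25 mM HEPES, pH 7.4, with CaCl2, MgCl2, bacitracin and Tween-20. Ki values, from four-parameter IC50 fits, are geometric means over independent days.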

Numbered stars: 1 amine (or outer) side, 2 acyl side, 3 side chain; on linkers, the order of the positions; unused ones are H or OH. Square brackets hold non-standard residues; d marks the D form. Side chains are listed from the residue outwards. Peptide text beside a SMILES is read from it. * marks the point of attachment. C20 diacid = O=C(O)CCCCCCCCCCCCCCCCCCC(=O)*; C18 diacid = O=C(O)CCCCCCCCCCCCCCCCC(=O)*; αMePhe(2-F) = C[C@](N)(Cc1ccccc1F)C(=O)O; γGlu = O=C(O)[C@H](CCC(=O)[*:2])N[*:1]; αMeL = CC(C)C[C@](C)(N)C(=O)O; AEEA = NCCOCCOCC(=O)O; Aib = CC(C)(N)C(=O)O

T4 sequence (P47871 26-477): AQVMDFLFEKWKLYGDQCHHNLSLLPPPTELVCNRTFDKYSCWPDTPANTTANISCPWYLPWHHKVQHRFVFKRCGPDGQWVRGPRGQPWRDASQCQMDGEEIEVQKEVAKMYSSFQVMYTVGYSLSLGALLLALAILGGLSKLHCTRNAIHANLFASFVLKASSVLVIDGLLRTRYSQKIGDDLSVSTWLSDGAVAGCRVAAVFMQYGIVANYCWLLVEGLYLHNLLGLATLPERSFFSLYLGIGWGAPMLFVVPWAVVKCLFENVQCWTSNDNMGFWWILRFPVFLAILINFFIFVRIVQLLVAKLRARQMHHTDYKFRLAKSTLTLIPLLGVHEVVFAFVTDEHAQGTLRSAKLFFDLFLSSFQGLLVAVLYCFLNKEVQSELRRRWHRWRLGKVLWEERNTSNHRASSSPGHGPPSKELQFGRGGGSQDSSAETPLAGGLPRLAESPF
T2 sequence (P43220 24-463): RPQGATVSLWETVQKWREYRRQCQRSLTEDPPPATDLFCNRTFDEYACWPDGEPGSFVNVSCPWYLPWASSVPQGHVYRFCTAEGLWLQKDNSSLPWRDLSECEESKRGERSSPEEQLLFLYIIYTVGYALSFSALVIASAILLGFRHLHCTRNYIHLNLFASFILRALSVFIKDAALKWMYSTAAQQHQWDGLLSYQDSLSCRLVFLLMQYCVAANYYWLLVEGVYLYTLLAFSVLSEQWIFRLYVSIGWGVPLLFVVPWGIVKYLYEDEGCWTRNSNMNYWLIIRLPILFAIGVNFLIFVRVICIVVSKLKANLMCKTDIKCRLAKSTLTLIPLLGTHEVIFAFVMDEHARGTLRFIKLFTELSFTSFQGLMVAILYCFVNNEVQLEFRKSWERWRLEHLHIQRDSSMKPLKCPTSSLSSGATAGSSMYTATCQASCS
Sequence of human GLP-1 receptor (GLP-1R) (P43220 24-463): as above

The EC50 is the midpoint of the concentration-response curve. For orientation: Ki means a dissociation constant, usually derived from enzyme kinetics or from competition with a known ligand. With `CC[C@H](C)[C@H](NC(=O)[C@H](CC(C)C)NC(=O)[C@H](Cc1ccc(O)cc1)NC(=O)[C@H](CCC(=O)O)NC(=O)[C@@H](NC(=O)[C@H](Cc1ccccc1)NC(=O)[C@H](CCC(=O)O)NC(=O)C(C)(C)NC(=O)[C@H](CCC(N)=O)NC(=O)[C@H](C)NC(=O)[C@H](CCCCNC(=O)COCCOCCNC(=O)COCCOCCNC(=O)CC[C@H](NC(=O)CCCCCCCCCCCCCCCCCCC(=O)O)C(=O)O)NC(=O)[C@H](CCC(=O)O)NC(=O)[C@H](CC(=O)O)NC(=O)[C@H](CC(C)C)NC(=O)[C@](C)(CC(C)C)NC(=O)[C@@H](NC(=O)[C@H](CO)NC(=O)[C@H](Cc1ccc(O)cc1)NC(=O)[C@H](CC(=O)O)NC(=O)[C@H](CO)NC(=O)[C@@H](NC(=O)[C@H](Cc1ccccc1)NC(=O)[C@@H](NC(=O)CNC(=O)[C@H](CCC(=O)O)NC(=O)C(C)(C)NC(=O)[C@@H](N)Cc1ccc(O)cc1)[C@@H](C)O)[C@@H](C)O)[C@@H](C)CC)[C@@H](C)CC)C(=O)N[C@@H](C)C(=O)NCC(=O)NCC(=O)N1CCC[C@H]1C(=O)N[C@@H](CO)C(=O)N[C@@H](CO)C(=O)NCC(=O)N[C@@H](C)C(=O)N1CCC[C@H]1C(=O)N1CCC[C@H]1C(=O)N1CCC[C@H]1C(=O)N[C@@H](CO)C(N)=O` [Example 331] (H-Y[Aib]EGTFTSDYSI[αMeL]LDEK([AEEA-AEEA-γGlu-C20 diacid])AQ[Aib]EFIEYLIAGGPSSGAPPPS-NH2), the EC50 in test [1] was 0.0547 nM; in test [3], 0.375 nM; in test [4], 0.0128 µM; in test [6] it was 0.0929 nM. In addition, the Ki is 11.4 nM in test [2], 0.0851 nM in test [5] and above 969 nM in test [7]. In addition, the “hGLP1R B-Arrestin2 % Top” value in test [4] came out at 44.3%.

Consider `CC[C@H](C)[C@H](NC(=O)[C@H](CC(C)C)NC(=O)[C@H](Cc1ccc(O)cc1)NC(=O)[C@H](CCC(=O)O)NC(=O)[C@@H](NC(=O)[C@H](Cc1ccccc1)NC(=O)[C@H](C)NC(=O)C(C)(C)NC(=O)[C@H](CCC(N)=O)NC(=O)[C@H](C)NC(=O)[C@H](CCCCNC(=O)COCCOCCNC(=O)COCCOCCNC(=O)CC[C@H](NC(=O)CCCCCCCCCCCCCCCCCCC(=O)O)C(=O)O)NC(=O)[C@H](CCCCN)NC(=O)[C@H](CC(=O)O)NC(=O)[C@H](CC(C)C)NC(=O)[C@](C)(CC(C)C)NC(=O)[C@@H](NC(=O)[C@H](CO)NC(=O)[C@H](Cc1ccc(O)cc1)NC(=O)[C@H](CC(=O)O)NC(=O)[C@H](CO)NC(=O)[C@@H](NC(=O)[C@H](Cc1ccccc1)NC(=O)[C@@H](NC(=O)CNC(=O)[C@H](CCC(=O)O)NC(=O)C(C)(C)NC(=O)[C@@H](N)Cc1ccccc1)[C@@H](C)O)[C@@H](C)O)[C@@H](C)CC)[C@@H](C)CC)C(=O)N[C@@H](CCC(=O)O)C(=O)NCC(=O)NCC(=O)N1CCC[C@H]1C(=O)N[C@@H](CO)C(=O)N[C@@H](CO)C(=O)NCC(=O)N[C@@H](C)C(=O)N1CCC[C@H]1C(=O)N1CCC[C@H]1C(=O)N1CCC[C@H]1C(=O)N[C@@H](CO)C(N)=O` [Example 327] (H-F[Aib]EGTFTSDYSI[αMeL]LDKK([AEEA-AEEA-γGlu-C20 diacid])AQ[Aib]AFIEYLIEGGPSSGAPPPS-NH2; N-terminus assumed), for which the EC50 in test [1] is 0.0548 nM; in test [3], 0.287 nM; in test [4] it was 0.00379 µM; in test [6], 0.27 nM. Further, the Ki in test [2] came to 2.1 nM; in test [5], 0.0667 nM; in test [7], 114 nM. In addition, the “hGLP1R B-Arrestin2 % Top” value in test [4] is given as 41.6%.

For `CC[C@H](C)[C@H](NC(=O)[C@H](CC(C)C)NC(=O)[C@H](Cc1ccc(O)cc1)NC(=O)[C@H](CCC(=O)O)NC(=O)[C@@H](NC(=O)[C@H](Cc1ccccc1)NC(=O)[C@H](C)NC(=O)C(C)(C)NC(=O)[C@H](CCC(N)=O)NC(=O)[C@H](C)NC(=O)[C@H](CCCCNC(=O)COCCOCCNC(=O)COCCOCCNC(=O)CC[C@H](NC(=O)CCCCCCCCCCCCCCCCC(=O)O)C(=O)O)NC(=O)[C@H](CCCCN)NC(=O)[C@H](CC(=O)O)NC(=O)[C@H](CC(C)C)NC(=O)[C@H](CC(C)C)NC(=O)[C@@H](NC(=O)[C@H](CO)NC(=O)[C@H](Cc1ccc(O)cc1)NC(=O)[C@H](CC(=O)O)NC(=O)[C@H](CO)NC(=O)[C@@H](NC(=O)[C@](C)(Cc1ccccc1F)NC(=O)[C@@H](NC(=O)CNC(=O)[C@H](CCC(=O)O)NC(=O)C(C)(C)NC(=O)[C@@H](N)Cc1ccc(O)cc1)[C@@H](C)O)[C@@H](C)O)[C@@H](C)CC)[C@@H](C)CC)C(=O)N[C@@H](CCC(=O)O)C(=O)NCC(=O)NCC(=O)N1CCC[C@H]1C(=O)N[C@@H](CO)C(=O)N[C@@H](CO)C(=O)NCC(N)=O` [Example 302] (H-Y[Aib]EGT[αMePhe(2-F)]TSDYSILLDKK([AEEA-AEEA-γGlu-C18 diacid])AQ[Aib]AFIEYLIEGGPSSG-NH2), the concentration giving a half-maximal response (EC50) in test [1] stood at 0.0308 nM; in test [3], 0.268 nM; in test [4] it was 0.00219 µM; in test [6], 0.0275 nM. In addition, the Ki in test [2] was 0.617 nM; in test [5] it was 0.0289 nM; in test [7] it was 18.5 nM. Also, the “hGLP1R B-Arrestin2 % Top” value in test [4] worked out at 98.4%.

For `CC[C@H](C)[C@H](NC(=O)[C@H](CC(C)C)NC(=O)[C@H](Cc1ccc(O)cc1)NC(=O)[C@H](CCC(=O)O)NC(=O)[C@@H](NC(=O)[C@H](Cc1ccccc1)NC(=O)[C@H](C)NC(=O)C(C)(C)NC(=O)[C@H](CCC(N)=O)NC(=O)[C@H](C)NC(=O)[C@H](CCCCNC(=O)COCCOCCNC(=O)COCCOCCNC(=O)CC[C@H](NC(=O)CCCCCCCCCCCCCCCCCCC(=O)O)C(=O)O)NC(=O)[C@H](CCC(=O)O)NC(=O)[C@H](CC(=O)O)NC(=O)[C@H](CC(C)C)NC(=O)[C@](C)(CC(C)C)NC(=O)[C@@H](NC(=O)[C@H](CO)NC(=O)[C@H](Cc1ccc(O)cc1)NC(=O)[C@H](CC(=O)O)NC(=O)[C@H](CO)NC(=O)[C@@H](NC(=O)[C@H](Cc1ccccc1)NC(=O)[C@@H](NC(=O)CNC(=O)[C@H](CCC(=O)O)NC(=O)C(C)(C)NC(=O)[C@H](N)Cc1ccc(O)cc1)[C@@H](C)O)[C@@H](C)O)[C@@H](C)CC)[C@@H](C)CC)C(=O)N[C@@H](C)C(=O)NCC(=O)NCC(=O)N1CCC[C@H]1C(=O)N[C@@H](CO)C(=O)N[C@@H](CO)C(=O)NCC(=O)N[C@@H](C)C(=O)N1CCC[C@H]1C(=O)N1CCC[C@H]1C(=O)N1CCC[C@H]1C(=O)N[C@@H](CO)C(N)=O` [Example 341] (H-[dY][Aib]EGTFTSDYSI[αMeL]LDEK([AEEA-AEEA-γGlu-C20 diacid])AQ[Aib]AFIEYLIAGGPSSGAPPPS-NH2; N-terminus assumed), the half-maximal effective concentration (EC50) in test [1] worked out at 0.238 nM; in test [3], 0.496 nM; in test [4], 0.0188 µM; in test [6] it was 0.373 nM. Further, the Ki was 6.49 nM in test [2], 0.0559 nM in test [5] and 39.7 nM in test [7]. Moreover, the “hGLP1R B-Arrestin2 % Top” value in test [4] is on record as 21.9%.

These data come from patent publication US12252524B2, “GIP/GLP1 co-agonist compounds” (Eli Lilly and Company, priority 2018, dated 2025).
